Earlier results as cited in patent US9498539B2, “Affinity-based controlled release system” (priority 2012, dated 2016).
pKd: −log10 of the molar value. Read-outs that look alike come from different tables or passages of the source.

Tests used:
[1] = 24 h; cited from earlier work
[2] = molecular target: Src homology 3 domain (SH3) (Saccharomyces cerevisiae, UniProt P15891); conditions: read-out: Kd (affinity to SH3), SH3-binding peptide to SH3, not part of the composition, cited from earlier work
Chain of Src homology 3 domain (SH3) (P15891 532-592 limits assumed): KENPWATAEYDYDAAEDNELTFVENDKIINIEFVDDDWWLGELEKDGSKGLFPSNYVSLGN

Streptavidin = Streptavidin (Streptomyces avidinii, UniProt P22629); conditions: streptavidin binds 2-iminobiotin, medium affinity; cited from earlier work
Chain of Streptavidin (P22629 25-183): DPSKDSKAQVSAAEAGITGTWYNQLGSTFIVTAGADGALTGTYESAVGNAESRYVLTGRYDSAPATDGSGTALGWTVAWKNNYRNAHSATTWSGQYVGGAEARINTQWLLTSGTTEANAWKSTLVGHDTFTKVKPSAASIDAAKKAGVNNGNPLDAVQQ

FGF-2: basic fibroblast growth factor, literature data of Nakamura et al.
remaining bioactivity [1]: < 10%

KPPVVKKPHYLS [compound 4]
pKd [2]: 4.57 | pKd ([2]; listed as weak binder): 5.00

N=C1N[C@H]2[C@H](CS[C@H]2CCCCC(=O)O)N1 [2-iminobiotin]
pKd (Streptavidin): 4.90
